Activity calls are given as the source filed them. The rule behind the calls is not given here.

Results on 17 compounds are retold here after ChEMBL document CHEMBL5055663, “Histamine H3 receptor antagonists with peptidomimetic (keto)piperazine structures to inhibit Aβ oligomerisation” (Bioorg Med Chem, 2021).

Experiment [1] concerns the target T1, Histamine H3 receptor (Homo sapiens, UniProt Q9Y5N1). Briefly: Displacement of [3H]Nalpha-methylhistamine from recombinant human histamine H3 receptor expressed in HEK293 cells incubated for 90 mins by competition binding assay. Format: cell-based. In general terms: Displacement assays read how much labelled ligand stays bound in the presence of the test substance.

Experiment [2] deals with T2, Amyloid-beta precursor protein (Homo sapiens, UniProt P05067). Briefly: Binding affinity to CM-5 sensor chip immobilized beta-amyloid monomer (1 to 42) (unknown origin) assessed as dissociation constant by SPR analysis. For orientation: SPR reads the build-up and loss of mass on a sensor chip optically.
In experiment [3] the target is T2, Amyloid-beta precursor protein. Briefly: Binding affinity to CM-5 sensor chip immobilized beta-amyloid monomer (1 to 42) (unknown origin) at 200 uM by SPR analysis.
For experiment [4], the target named is T1, Histamine H3 receptor. Briefly: Antagonist activity at histamine H3 receptor (unknown origin).

T2 sequence (P05067 whole entry): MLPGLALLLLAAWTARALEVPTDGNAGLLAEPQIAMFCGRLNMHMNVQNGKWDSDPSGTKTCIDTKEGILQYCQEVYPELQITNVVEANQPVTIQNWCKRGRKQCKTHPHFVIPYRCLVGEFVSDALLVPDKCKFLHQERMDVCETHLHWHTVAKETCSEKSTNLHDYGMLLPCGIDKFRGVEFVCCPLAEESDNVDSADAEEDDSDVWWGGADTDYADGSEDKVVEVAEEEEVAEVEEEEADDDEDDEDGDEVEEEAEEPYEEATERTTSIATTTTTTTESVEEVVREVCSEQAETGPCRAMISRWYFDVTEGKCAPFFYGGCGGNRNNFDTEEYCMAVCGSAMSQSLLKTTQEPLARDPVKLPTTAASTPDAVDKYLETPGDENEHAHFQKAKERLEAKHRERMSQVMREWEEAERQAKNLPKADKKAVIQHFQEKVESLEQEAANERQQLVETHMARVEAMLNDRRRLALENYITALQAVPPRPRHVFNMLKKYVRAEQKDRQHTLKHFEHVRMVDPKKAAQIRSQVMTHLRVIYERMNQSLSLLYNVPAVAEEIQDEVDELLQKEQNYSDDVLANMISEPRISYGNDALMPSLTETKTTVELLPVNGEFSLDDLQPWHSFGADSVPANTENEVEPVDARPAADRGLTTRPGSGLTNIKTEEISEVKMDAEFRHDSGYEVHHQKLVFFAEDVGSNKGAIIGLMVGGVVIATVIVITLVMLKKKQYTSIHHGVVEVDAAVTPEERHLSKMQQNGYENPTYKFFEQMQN
T1 sequence (Q9Y5N1 whole entry): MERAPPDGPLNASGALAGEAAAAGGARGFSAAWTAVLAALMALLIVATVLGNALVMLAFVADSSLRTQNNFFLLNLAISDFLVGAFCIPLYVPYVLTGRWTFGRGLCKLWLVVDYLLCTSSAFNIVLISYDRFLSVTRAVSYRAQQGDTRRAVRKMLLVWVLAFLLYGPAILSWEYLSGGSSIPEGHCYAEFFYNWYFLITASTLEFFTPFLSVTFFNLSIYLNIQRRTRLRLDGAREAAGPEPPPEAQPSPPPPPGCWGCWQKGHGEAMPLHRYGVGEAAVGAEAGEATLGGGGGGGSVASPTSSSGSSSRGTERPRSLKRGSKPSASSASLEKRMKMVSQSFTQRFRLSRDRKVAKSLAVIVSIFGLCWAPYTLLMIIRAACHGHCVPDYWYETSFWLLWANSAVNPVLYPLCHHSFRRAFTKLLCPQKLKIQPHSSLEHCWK

On to `O=C1CN(Cc2ccc(OCCCN3CCCCC3)cc2)C(=O)CN1`, for which the Ki at Histamine H3 receptor [1] turned out to be 0.0049 µM. Besides, the Kd in experiment [2] was 1550 µM. For the compound `c1ccc(C[C@H]2CN[C@@H](Cc3ccc(OCCCN4CCCCC4)cc3)CN2)cc1`, on Histamine H3 receptor [1], the Ki was 0.0011 µM. For the same compound, the result in experiment [3] was inactive. For `C[C@@H]1NC(=O)[C@H](Cc2ccc(OCCCN3CCCCC3)cc2)NC1=O`, the Ki at Histamine H3 receptor [1] came to 0.159 µM. Also, the result in experiment [3] was inactive. With `O=c1[nH]/c(=C\c2ccc(OCCCN3CCCCC3)cc2)c(=O)[nH]/c1=C\c1ccccc1`, the Ki on Histamine H3 receptor [1] came to 0.0038 µM. Besides, the result in experiment [3] was inactive. For the compound `O=C1CN(C(=O)c2ccc(OCCCN3CCCCC3)cc2)CCN1Cc1ccccc1`, the Ki on Histamine H3 receptor [1] stood at 0.0049 µM. Take `O=C1CNC(=O)[C@H](Cc2ccc(OCCCN3CCCCC3)cc2)N1`: at Histamine H3 receptor [1], the Ki was found to be 0.074 µM. In addition, the result in experiment [3] was inactive. As for `O=C1CN(Cc2ccc(OCCCN3CCCCC3)cc2)CCN1Cc1ccccc1`, the Ki on Histamine H3 receptor [1] was 0.0113 µM. The Kd in experiment [2] came out at 51.6 µM. For `c1cc(OCCCN2CCCCC2)ccc1C[C@H]1CNCCN1`, the Ki at Histamine H3 receptor [1] was 0.002 µM. In experiment [3], the outcome was inactive.

For `O=C1CNC(=O)[C@@H](Cc2ccc(OCCCN3CCCCC3)cc2)N1`, the Ki on Histamine H3 receptor [1] came to 0.158 µM. In experiment [3], the outcome was inactive.

For the compound `O=C1N[C@@H](Cc2ccc(OCCCN3CCCCC3)cc2)C(=O)N[C@H]1Cc1ccccc1`, the Ki on Histamine H3 receptor [1] was found to be 0.039 µM. The outcome in experiment [3] was inactive. Besides, the Kd in experiment [2] is 12000 µM. Regarding `CC(=O)N1CC(=O)N/C(=C\c2ccc(OCCCN3CCCCC3)cc2)C1=O`, the Ki at Histamine H3 receptor [1] came out at 0.0038 µM. In addition, in experiment [3], the result was inactive. As to `CC(=O)N1C(=O)/C(=C/c2ccc(OCCCN3CCCCC3)cc2)NC(=O)[C@@H]1Cc1ccccc1`, at Histamine H3 receptor [1], the Ki came to 0.0044 µM. The result in experiment [3] was inactive. Turning to `O=C1N[C@@H](Cc2ccccc2)C(=O)N/C1=C\c1ccc(OCCCN2CCCCC2)cc1` (stereo in doubt), the Ki on Histamine H3 receptor [1] amounted to 0.002 µM. Also, in experiment [3], the result was inactive.

Consider `O=C1CN(C(=O)c2ccc(OCCCN3CCCCC3)cc2)CCN1`, for which the Ki on Histamine H3 receptor [1] turned out to be 0.0028 µM.

`O=C1CNC(=O)/C(=C/c2ccc(OCCCN3CCCCC3)cc2)N1`: the Ki at Histamine H3 receptor [1] was found to be 0.0223 µM. The outcome in experiment [3] was inactive.

Turning to `CC(C)[C@@H]1NC(=O)[C@H](Cc2ccc(OCCCN3CCCCC3)cc2)NC1=O`, the Ki at Histamine H3 receptor [1] amounted to 0.219 µM. Besides, the outcome in experiment [3] was inactive. Turning to `CN1C[C@H]2CCN(c3ccc(-c4ccc(-n5ncccc5=O)cc4)cc3)[C@H]2C1`, on Histamine H3 receptor [4], the Ki is 0.002 µM.

Usually Ki stands for the equilibrium dissociation constant of an inhibitor or competing ligand from its target. As usually defined, the Kd is the constant that tells how readily two partners part at equilibrium.
